Results reported in US10377743B2, “Inhibitors of RAS and methods of use thereof” (Araxes Pharma LLC, priority 2016, dated 2019).

Target: T1, KRAS G12C 1-169, his-tagged protein, GDP-loaded (Homo sapiens, UniProt P01116, G12C)
T1 construct: KRAS G12C 1-169, his-tagged protein, GDP-loaded
Test: Biochemical assay: covalent binding (modification %) to KRAS G12C by mass spectrometry
Details: 2 hour incubation period, 8 μM compound (compounds 21-92)
Experimental: Test compounds were prepared as 10 mM stock solutions in DMSO (Fisher cat# BP-231-100). KRAS G12C 1-169, his-tagged protein, GDP-loaded was diluted to 2 μM or 0.5 μM in buffer (20 mM Hepes, 150 mM NaCl, 1 mM MgCl2). Compounds were tested for activity as follows:
Compounds were diluted to 50× final test concentration in DMSO in 96-well storage plates. Compound stock solutions were vortexed before use and observed carefully for any sign of precipitation. Dilutions were as follow: • For 100 μM final compound concentration, compounds were diluted to 5000 μM (5 μL 10 mM compound stock+5 μL DMSO and mixed well by pipetting. • For 30 μM final compound concentration, compounds were diluted to 1500 μM (3 μL 10 mM compound stock+17 μL DMSO) and mixed well by pipetting. • For 10 μM final compound concentration, compounds were diluted to 500 μM (2 μL 10 mM compound stock+38 μL DMSO) and mixed well by pipetting. 49 μL of the stock protein solution was added to each well of a 96-well PCR plate (Fisher cat#1423027). 1 μl of the diluted 50× compounds were added to appropriate wells in the PCR plate using 12-channel pipettor. Reactions were mixed carefully and thoroughly by pipetting up/down with a 200 μL multi-channel pipettor. The plate was sealed well with aluminum plate seal, and stored in drawer at room temperature for 10 minutes, 30 minutes, 2 hours or 24 hours. 5 μL of 2% formic acid (Fisher cat# A117) in de-ionized H2O was then added to each well followed by mixing with a pipette. The plate was then resealed with aluminum seal and stored on dry ice until analyzed as described below.
The above described assays were analyzed by mass spectrometry according to one of the following two procedures:
The MS instrument is set to positive polarity, 2 GHz resolution, and low mass (1700) mode and allowed to equilibrate for 30 minutes. The instrument is then calibrated, switched to acquisition mode and the appropriate method loaded.
After another 30 minute equilibration time, a blank batch (i.e., buffer) is run to ensure equipment is operating properly. The samples are thawed at 37° C. for 10 minutes, briefly centrifuged, and transfer to the bench top. Wells A1 and H12 are spiked with 1 μL 500 μM internal standard peptide, and the plates centrifuged at 2000×g for 5 minutes. The method is then run and masses of each individual well recorded.
The masses (for which integration data is desired) for each well are pasted into the platemap and exported from the analysis. Masses for the internal standards are exported as well. The data at 50 ppm is extracted for the +19 charge state, and identity of well A1 is assigned using the internal standard spike and integrated. Peak data is exported as a TOF list and the above steps are repeated individually, for the +20, 21, 22, 23, 24, and 25 charge states.
The masses and peak intensities of KRAS G12C protein species were measured using a Dionex RSLCnano system (Thermo Scientific) connected to a Q Exactive Plus mass spectrometer (Thermo Scientific).
[…] of sample was each loaded onto a Aeris™ 3.6 μm WIDEPORE C4 200 Å, LC Column 50×2.1 mm column maintained at 40° C. at a flow rate of 600 μL/min with 20% Solvent A (0.1% formic acid in H2O) and 80% Solvent B (0.1% formic acid in acetonitrile). The liquid chromatography conditions were 20% solvent B for 1 minute, 20% to 60% solvent B for 1.5 minutes, 60% to 90% solvent for 0.5 minute, 90% solvent B for 0.2 minute, 90% to 20% solvent B for 0.2 minute, and then equilibrated for 1.6 minute before the following sample injection. The flow rate was maintained at 600 μL/min throughout the sample analysis.
The mass spectrometer was operated in profile mode at a resolution of 17500, 5 microscans, using 50 msec max injection time and an AGC target of 1×10^6, and a full mass range from 800-1850 m/z was recorded. The HCD trapping gas was optimized for maximum sensitivity for intact proteins. […]

| Structure (SMILES) | Binding % |
| --- | --- |
| C=CC(=O)N1CC(N2Cc3c(F)cc(-c4cc(O)cc5ccccc45)cc3C2=O)C1 [Compound 27, 2-(1-acryloylazetidin-3-yl)-4-fluoro-6-(3-hydroxynaphthalen-1-yl)isoindolin-1-one] | +++ (+++ indicates binding activity greater than 50%) |
| C=CC(=O)N1CC(N2Cc3c(cc(-c4cc(O)cc5ccccc45)cc3C(F)(F)F)C2=O)C1 [Compound 28, 2-(1-acryloylazetidin-3-yl)-6-(3-hydroxynaphthalen-1-yl)-4-(trifluoromethyl)isoindolin-1-one] | ++ (++ indicates binding activity from 10 to 50%) |
| C=CC(=O)N1CC(N2Cc3cc(C)c(-c4cc(O)ccc4Cl)cc3C2=O)C1 [Compound 29, 2-(1-acryloylazetidin-3-yl)-6-(2-chloro-5-hydroxyphenyl)-5-methylisoindolin-1-one] | ++ (++ indicates binding activity from 10 to 50%) |
| C=CC(=O)N1CC(N2Cc3cc(C)c(-c4cc(O)cc5ccccc45)cc3C2=O)C1 [Compound 30, 2-(1-acryloylazetidin-3-yl)-6-(3-hydroxynaphthalen-1-yl)-5-methylisoindolin-1-one] | +++ (+++ indicates binding activity greater than 50%) |
| C=CC(=O)N1CC(N2CCc3ccc(-c4cc(O)cc5ccccc45)cc3CC2)C1 [Compound 31, 1-(3-(7-(3-hydroxynaphthalen-1-yl)-4,5-dihydro-1H-benzo[d]azepin-3(2H)-yl)azetidin-1-yl)prop-2-en-1-one] | + (+ indicates binding activity up to 10%) |
| C=CC(=O)N1CC(N2C(=O)c3ccc(-c4c(C)ccc5[nH]ncc45)cc3C2=O)C1 [Compound 32, 2-(1-acryloylazetidin-3-yl)-5-(5-methyl-1H-indazol-4-yl)isoindoline-1,3-dione] | + (+ indicates binding activity up to 10%) |
| C=CC(=O)N1CC(N2Cc3ccc(-c4cc(O)cc(F)c4)cc3C2=O)C1 [Compound 33, 2-(1-acryloylazetidin-3-yl)-6-(3-fluoro-5-hydroxyphenyl)isoindolin-1-one] | + (+ indicates binding activity up to 10%) |
| C=CC(=O)N1CC(N2Cc3sc(-c4cc(O)cc5ccccc45)cc3C2=O)C1 [Compound 34, 5-(1-acryloylazetidin-3-yl)-2-(3-hydroxynaphthalen-1-yl)-5,6-dihydro-4H-thieno[2,3-c]pyrrol-4-one] | +++ (+++ indicates binding activity greater than 50%) |
| C=CC(=O)N1CC(N2CCc3ccc(-c4cc(O)cc5ccccc45)cc3C2=O)C1 [Compound 35, 2-(1-acryloylazetidin-3-yl)-7-(3-hydroxynaphthalen-1-yl)-3,4-dihydroisoquinolin-1(2H)-one] | +++ (+++ indicates binding activity greater than 50%) |
| C=CC(=O)N1CC(N2CCc3ccc(-c4c(C)ccc5[nH]ncc45)cc3C2=O)C1 [Compound 36, 2-(1-acryloylazetidin-3-yl)-7-(5-methyl-1H-indazol-4-yl)-3,4-dihydroisoquinolin-1(2H)-one] | + (+ indicates binding activity up to 10%) |
| C=CC(=O)N1CC(N2CCc3ccc(-c4c(C)ccc5[nH]ncc45)cc3CC2)C1 [Compound 37, 1-(3-(7-(5-methyl-1H-indazol-4-yl)-4,5-dihydro-1H-benzo[d]azepin-3(2H)-yl)azetidin-1-yl)prop-2-en-1-one] | + (+ indicates binding activity up to 10%) |
| C=CC(=O)N1CC(N2Cc3ccc(-c4c(C)ccc5[nH]ncc45)cc3CC2=O)C1 [Compound 38, 2-(1-acryloylazetidin-3-yl)-6-(5-methyl-1H-indazol-4-yl)-1,2-dihydroisoquinolin-3(4H)-one] | ++ (++ indicates binding activity from 10 to 50%) |
| C=CC(=O)N1CC(N2Cc3ccc(-c4c(C)ccc5cn[nH]c45)cc3CC2=O)C1 [Compound 39, 2-(1-acryloylazetidin-3-yl)-6-(6-methyl-1H-indazol-7-yl)-1,2-dihydroisoquinolin-3(4H)-one] | ++ (++ indicates binding activity from 10 to 50%) |
| C=CC(=O)N1CC(N2Cc3ccc(-c4cc(O)ccc4Cl)cc3CC2=O)C1 [Compound 40, 2-(1-acryloylazetidin-3-yl)-6-(2-chloro-5-hydroxyphenyl)-1,2-dihydroisoquinolin-3(4H)-one] | +++ (+++ indicates binding activity greater than 50%) |
| C=CC(=O)N1CC(N2Cc3ccc(-c4c(O)cccc4F)cc3CC2=O)C1 [Compound 41, 2-(1-acryloylazetidin-3-yl)-6-(2-fluoro-6-hydroxyphenyl)-1,2-dihydroisoquinolin-3(4H)-one] | ++ (++ indicates binding activity from 10 to 50%) |
| C=CC(=O)N1CC(N2Cc3sc(-c4c(C)ccc5[nH]ncc45)cc3C2=O)C1 [Compound 42, 5-(1-acryloylazetidin-3-yl)-2-(5-methyl-1H-indazol-4-yl)-5,6-dihydro-4H-thieno[2,3-c]pyrrol-4-one] | ++ (++ indicates binding activity from 10 to 50%) |
| C=CC(=O)N1CC(N2Cc3c(O)cc(-c4cc(O)cc5ccccc45)cc3C2=O)C1 [Compound 43, 2-(1-acryloylazetidin-3-yl)-4-hydroxy-6-(3-hydroxynaphthalen-1-yl)isoindolin-1-one] | +++ (+++ indicates binding activity greater than 50%) |
| C=CC(=O)N1CC(N2Cc3c(O)cc(-c4c(C)ccc5[nH]ncc45)cc3C2=O)C1 [Compound 44, 2-(1-acryloylazetidin-3-yl)-4-hydroxy-6-(5-methyl-1H-indazol-4-yl)isoindolin-1-one] | ++ (++ indicates binding activity from 10 to 50%) |
| C=CC(=O)N1CC(N2Cc3ccc(Oc4ccccc4)cc3C2=O)C1 [Compound 45, 2-(1-acryloylazetidin-3-yl)-6-phenoxyisoindolin-1-one] | + (+ indicates binding activity up to 10%) |
| C=CC(=O)N1CC(N2Cc3ccc(-c4cccc5[nH]cnc45)cc3C2=O)C1 [Compound 46, 2-(1-acryloylazetidin-3-yl)-6-(1H-benzo[d]imidazol-4-yl)isoindolin-1-one] | + (+ indicates binding activity up to 10%) |
| C=CC(=O)N1CC(N2Cc3ccc(-c4ccccc4C(N)=O)cc3C2=O)C1 [Compound 47, 2-(2-(1-acryloylazetidin-3-yl)-3-oxoisoindolin-5-yl)benzamide] | + (+ indicates binding activity up to 10%) |
| C=CC(=O)N1CC(N2Cc3ccc(-c4cccc5[nH]ncc45)cc3C2=O)C1 [Compound 48, 2-(1-acryloylazetidin-3-yl)-6-(1H-indazol-4-yl)isoindolin-1-one] | + (+ indicates binding activity up to 10%) |
| C=CC(=O)N1CC(N2Cc3ccc(-c4cc(O)cc(Cl)c4)cc3C2=O)C1 [Compound 49, 2-(1-acryloylazetidin-3-yl)-6-(3-chloro-5-hydroxyphenyl)isoindolin-1-one] | ++ (++ indicates binding activity from 10 to 50%) |
| C=CC(=O)N1CC(N2Cc3ccc(-c4cccc(C(N)=O)c4)cc3C2=O)C1 [Compound 50, 3-(2-(1-acryloylazetidin-3-yl)-3-oxoisoindolin-5-yl)benzamide] | + (+ indicates binding activity up to 10%) |
| C=CC(=O)N1CC(N2Cc3ccc(-c4cc(O)cc5ccccc45)cc3C2)C1 [Compound 51, 1-(3-(5-(3-hydroxynaphthalen-1-yl)isoindolin-2-yl)azetidin-1-yl)prop-2-en-1-one] | + (+ indicates binding activity up to 10%) |
| C=CC(=O)N1CC(N2Cc3ccc(-c4ccc(NC)cc4)cc3C2=O)C1 [Compound 52, 2-(1-acryloylazetidin-3-yl)-6-(4-(methylamino)phenyl)isoindolin-1-one] | + (+ indicates binding activity up to 10%) |
